Measured values from patent publication US12459899B2, “Isoquinolinone derivatives, method for preparing the same, and pharmaceutical composition for preventing or treating poly(ADP-ribose) polymerase-1-related diseases, comprising the same as active ingredient” (DIGMBIO. INC., priority 2019, dated 2025).

Target: PARP-1 (poly[ADP-ribose] polymerase 1) enzyme (Homo sapiens (Human), UniProt P09874)
Assay: PARP-1 (poly[ADP-ribose] polymerase 1) enzyme inhibitory ability, Trevigen assay kit
Format: biochemical
Settings: for inhibition at 0.001 µM: 1 nM compound, read-out: PAR P-1 Inhibitory ability at 1 nM
Protocol: In order to evaluate the PARP-1 (poly[ADP-ribose] polymerase 1) enzyme inhibitory ability of the compounds according to the present invention, an experiment was conducted as follows.
Specifically, in order to evaluate the PARP-1 (poly[ADP-ribose] polymerase 1) enzyme inhibitory ability of the compounds of Examples 1 to 276 according to the present invention, the PARP-1 (poly[ADP-ribose] polymerase 1) activity was investigated in the following manner using an assay kit purchased from Trevigen, Inc. (Catalog number: 4677-096-K). 50 μL of 1×PARP buffer (provided by Trevigen's kit) was dispensed into a 96-well plate coated with histones per each well, and then rehydrated for 30 minutes. After removing the 1×PARP buffer present in the well, PARP-1 (poly[ADP-ribose] polymerase 1) enzyme (0.5 unit/well) and 1 μM concentration or various concentrations of the compounds of Example 1 to 276 were added at room temperature and reacted for 10 minutes. Thereafter, each well was treated with 25 μL of 1×PARP cocktail (biotinylated NAD, activated DNA, provided by Trevigen's kit), and then reacted at room temperature for 1 hour. After the reaction was completed, each well was washed twice with PBS (7.5 mM Na2HPO4, 2.5 mM NaH2PO4, 145 mM NaCl) containing 0.1% triton X-100, and washed twice with PBS. Then, 50 μL of strep-HRP (streptavidin-linked peroxidase) was added and reacted at room temperature for 1 hour, and then washed twice with PBS containing 0.1% triton X-100, and washed twice with PBS. After removing all PBS, 50 μL of TACS-sapphire, a substrate, was added, and reacted at room temperature for 15 minutes while blocking the light. After the reaction was terminated by treatment with 50 μL of 5% phosphoric acid to each well, the absorbance was measured at 450 nm using a microplate reader Victor3 from PerkinElmer, Inc. to quantify the value.

Chain of PARP-1 (poly[ADP-ribose] polymerase 1) enzyme (P09874 whole entry): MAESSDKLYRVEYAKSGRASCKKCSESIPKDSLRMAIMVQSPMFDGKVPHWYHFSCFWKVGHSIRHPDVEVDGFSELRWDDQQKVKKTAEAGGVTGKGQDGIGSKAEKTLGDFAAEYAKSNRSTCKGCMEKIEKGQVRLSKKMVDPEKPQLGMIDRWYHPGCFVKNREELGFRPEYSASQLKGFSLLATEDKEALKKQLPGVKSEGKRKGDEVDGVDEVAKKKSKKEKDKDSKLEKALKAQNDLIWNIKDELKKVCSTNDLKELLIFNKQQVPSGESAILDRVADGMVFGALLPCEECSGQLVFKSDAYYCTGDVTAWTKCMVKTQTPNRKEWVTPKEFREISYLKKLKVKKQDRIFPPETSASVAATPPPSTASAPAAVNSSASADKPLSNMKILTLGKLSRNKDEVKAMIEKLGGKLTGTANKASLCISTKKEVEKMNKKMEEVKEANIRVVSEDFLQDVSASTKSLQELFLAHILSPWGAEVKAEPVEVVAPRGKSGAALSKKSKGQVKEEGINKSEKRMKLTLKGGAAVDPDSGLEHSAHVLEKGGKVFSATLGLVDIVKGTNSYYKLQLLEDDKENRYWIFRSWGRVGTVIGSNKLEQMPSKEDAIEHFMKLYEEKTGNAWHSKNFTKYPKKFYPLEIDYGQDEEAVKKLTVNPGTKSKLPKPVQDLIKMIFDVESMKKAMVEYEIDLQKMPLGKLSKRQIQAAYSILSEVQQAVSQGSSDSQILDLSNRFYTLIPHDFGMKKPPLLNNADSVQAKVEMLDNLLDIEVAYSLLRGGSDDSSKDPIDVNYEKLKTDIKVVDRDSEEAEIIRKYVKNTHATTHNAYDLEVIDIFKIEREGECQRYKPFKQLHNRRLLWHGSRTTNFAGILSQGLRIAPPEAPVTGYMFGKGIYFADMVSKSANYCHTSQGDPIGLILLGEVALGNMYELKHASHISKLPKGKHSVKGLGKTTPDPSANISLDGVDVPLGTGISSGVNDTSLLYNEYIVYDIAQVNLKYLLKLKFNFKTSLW

inhibition at 0.001 µM | SMILES | IC50 (PARP-1 enzyme activity)
< 50% | Cc1ccc(F)c2c(=O)[nH]c(CCCN3CCN(c4ccccn4)CC3)cc12 [Example 24, 8-fluoro-5-methyl-3-(3-(4-(pyridin-2-yl)piperazin-1-yl)propyl)isoquinolin-1(2H)-one] | 
< 50% | O=C(O)c1cccc(N2CCN(CCCc3cc4ccc(F)cc4c(=O)[nH]3)CC2)c1 [Example 19, 3-(4-(3-(7-fluoro-1-oxo-1,2-dihydroisoquinolin-3-yl)propyl)piperazin-1-yl)benzoic acid] | 
< 50% | O=C(CCc1cc2ccc(F)cc2c(=O)[nH]1)N1CCN(C(=O)C2CCCO2)CC1 (stereo not drawn) [Example 192, 7-fluoro-3-(3-oxo-3-(4-(tetrahydrofuran-2-carbonyl)piperazin-1-yl)propyl)isoquinolin-1(2H)-one] | 
< 50% | N#Cc1cc(N2CCN(C(=O)CCc3cc4ccc(F)cc4c(=O)[nH]3)CC2)ccc1F [Example 109, 2-fluoro-5-(4-(3-(7-fluoro-1-oxo-1,2-dihydroisoquinolin-3-yl)propanoyl)piperazin-1-yl)benzonitrile] | 
< 50% | Cc1cc(F)cc2c(=O)[nH]c(CCC(=O)N3CC=C(c4cccc(F)c4)CC3)cc12 [Example 164, 7-fluoro-3-(3-(4-(3-fluorophenyl)-3,6-dihydropyridin-1(2H)-yl)-3-oxopropyl)-5-methylisoquinolin-1(2H)-one] | 
< 50% | Cc1ccc(F)c2c(=O)[nH]c(CCC(=O)N3CC=C(c4cc(C#N)ccc4F)CC3)cc12 [Example 137, 4-fluoro-3-(1-(3-(8-fluoro-5-methyl-1-oxo-1,2-dihydroisoquinolin-3-yl)propanoyl)-1,2,3,6-tetrahydropyridin-4-yl)benzonitrile] | 
< 50% | Cc1ccc(F)c2c(=O)[nH]c(CCC(=O)N3CCN(C(=O)C4CCCC4)CC3)cc12 [Example 175, 3-(3-(4-(cyclopentanecarbonyl)piperazin-1-yl)-3-oxopropyl)-8-fluoro-5-methylisoquinolin-1(2H)-one] | 
< 50% | Cc1ccc(F)c2c(=O)[nH]c(CCC(=O)N3CCC(Nc4ccc(C#N)cc4)CC3)cc12 [Example 259, 4-((1-(3-(8-fluoro-5-methyl-1-oxo-1,2-dihydroisoquinolin-3-yl)propanoyl)piperidin-4-yl)amino)benzonitrile] | 
< 50% | Cc1cc(F)cc2c(=O)[nH]c(CCC(=O)N3CCN(C(=O)C4CC4)CC3)cc12 [Example 185, 3-(3-(4-(cyclopropanecarbonyl)piperazin-1-yl)-3-oxopropyl)-7-fluoro-5-methylisoquinolin-1(2H)-one] | 
< 50% | N#Cc1cc(F)ccc1C1=CCN(C(=O)CCc2cc3ccc(F)cc3c(=O)[nH]2)CC1 [Example 112, 5-fluoro-2-(1-(3-(7-fluoro-1-oxo-1,2-dihydroisoquinolin-3-yl)propanoyl)-1,2,3,6-tetrahydropyridin-4-yl)benzonitrile] | 

SMILES | inhibition at 0.001 µM | IC50 (PARP-1 enzyme activity)
Cc1ccc(F)c2c(=O)[nH]c(CCCN3C4CCC3CN(c3ccc(C#N)nc3)C4)cc12 [Example 200, 5-(8-(3-(8-fluoro-5-methyl-1-oxo-1,2-dihydroisoquinolin-3-yl)propyl)-3,8-diazabicyclo[3.2.1]octan-3-yl)picolinonitrile] | 50 to 80% | 1.24 nM
Cc1ccc(F)c2c(=O)[nH]c(CCC(=O)N3C4CCC3CC(O)C4)cc12 (stereo not drawn) [Example 269, 8-fluoro-3-(3-(3-hydroxy-8-azabicyclo[3.2.1]octan-8-yl)-3-oxopropyl)-5-methylisoquinolin-1(2H)-one] | < 50% | 
Cc1ccc(F)c2c(=O)[nH]c(CCCN3C4CCC3CN(c3ccc(C#N)cc3)C4)cc12 [Example 197] | < 50% | 
Cc1ccc(F)c2c(=O)[nH]c(CCC(=O)N3C4CCC3CN(c3ccc(F)cc3)C4)cc12 [Example 208, 8-fluoro-3-(3-(3-(4-fluorophenyl)-3,8-diazabicyclo[3.2.1]octan-8-yl)-3-oxopropyl)-5-methylisoquinolin-1(2H)-one] | < 50% | 
